Source: PMC7564829, “Potent Broad-Spectrum Antibacterial Activity of Amphiphilic Peptides against Multidrug-Resistant Bacteria” (Microorganisms, 2020)

Experiments:
E. coli 1F28 = experiment: ROS measurements (DCFH-DA); type: cell-based; settings: 0 to 128 μg/mL, 60 min
Description: 2′,7′-Dichlorodihydrofluorescein diacetate (DCFH-DA, 10 μM) was incubated with E. coli 1F28 cells for 30 min. After washing with 0.01 M PBS, the probed cells were mixed with WRK-12 (0 to 128 μg/mL) or colistin (128 μg/mL) for 60 min. The ROS levels were assessed by monitoring the fluorescence intensity (λexcitation = 488 nm, λemission = 525 nm) using a Microplate reader (Tecan, Männedorf, Switzerland).

E. faecalis A4 (VRE) = experiment: MIC/MBC, broth micro-dilution; type: cell-based; settings: E. faecalis A4 (VRE)
Description: (§1) Experiments were performed with two biological replicates.

E. coli B3-1 (tet(X4)) = experiment: MIC/MBC, broth micro-dilution; type: cell-based; settings: E. coli B3-1 (tet(X4))
Description: as §1

[1] = Hydrophobicity by RP-HPLC (percent acetonitrile at elution); type: physicochemical; settings: acetonitrile in water, 0.1% (v/v) TFA, higher percent = higher hydrophobicity
Description: All peptides used in this study were synthesized by GL Biochem (Shanghai, China) using a solid phase peptide synthesis (SPPS) method, and their accurate molecular weights were determined by matrix-assisted laser desorption/ionization time-of-flight mass spectrometry (MALDI-TOF MS). The peptide purity (>95%) and retention time were determined by reversed-phase high-performance liquid chromatography (HPLC).
A collection of tryptophan-rich linear peptides on the basis of MP196 (RWRWRW-NH2) was designed by increasing peptide length or positive charge or hydrophobicity, replacing amino acids and/or N-terminal acetylation (Table 1). These peptides were synthesized via solid-phase peptide synthesis (SPPS), purified by reverse-phase high-performance liquid chromatography (RP-HPLC) (Figure S1) and validated by matrix-assisted laser desorption/ionization time-of-flight mass spectrometry (MALDI-TOF MS) (Figure S2). […] All engineered peptides belong to cationic AMPs, with 3 or 6 net charges. The percentage of acetonitrile at RP-HPLC elution was regarded as a relative measure of peptides’ hydrophobicity. […] The hydrophobicity order was listed as follows: WRK-12 > WL-9 > WR-6 > WV-9 > KW-6 > WKK-12 > WR-12 > MP196 > WK-6.

[2] = broth micro-dilution CLSI 2018, MHB, 18 h, 37 °C
[3] = lowest concentration killing 99.9%, plated on MHA

Ac-WRLRWKTRWRLK-NH2 [WRK-12]
ROS production, DCFH-DA fluorescence (E. coli 1F28): triggered the production of ROS in a concentration-dependent manner
MIC (E. faecalis A4 (VRE); [2]): 4 µg/mL
MBC (E. faecalis A4 (VRE); [3]): 8 µg/mL
MIC (E. coli B3-1 (tet(X4)); [2]): 2 µg/mL
MBC (E. coli B3-1 (tet(X4)); [3]): 2 µg/mL
H (hydrophobicity, percent of acetonitrile at HPLC elution) [1]: 36.513 percent acetonitrile
